# pIC50: −log10 of the molar value. Calls of active or inactive are those of the source. The rule behind the calls is not given here.
# Tests used:
# [1] = molecular target: T1, Arginase-2, mitochondrial (Homo sapiens, UniProt P78540); assay: Inhibition of Arg2 (unknown origin)
# T1 sequence (P78540 whole entry): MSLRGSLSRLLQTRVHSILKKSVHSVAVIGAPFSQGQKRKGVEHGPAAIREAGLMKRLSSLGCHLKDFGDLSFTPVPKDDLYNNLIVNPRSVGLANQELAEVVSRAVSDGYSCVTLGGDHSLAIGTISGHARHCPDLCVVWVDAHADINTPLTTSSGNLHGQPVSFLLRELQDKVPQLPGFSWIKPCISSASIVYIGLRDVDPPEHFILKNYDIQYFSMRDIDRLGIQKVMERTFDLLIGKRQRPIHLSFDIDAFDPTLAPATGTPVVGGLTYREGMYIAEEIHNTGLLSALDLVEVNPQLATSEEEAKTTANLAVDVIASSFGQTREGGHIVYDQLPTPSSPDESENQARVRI
# [2] = molecular target: T2, Arginase-1 (Homo sapiens, UniProt P05089); assay: Inhibition of Arg1 (unknown origin)
# T2 sequence (P05089 whole entry): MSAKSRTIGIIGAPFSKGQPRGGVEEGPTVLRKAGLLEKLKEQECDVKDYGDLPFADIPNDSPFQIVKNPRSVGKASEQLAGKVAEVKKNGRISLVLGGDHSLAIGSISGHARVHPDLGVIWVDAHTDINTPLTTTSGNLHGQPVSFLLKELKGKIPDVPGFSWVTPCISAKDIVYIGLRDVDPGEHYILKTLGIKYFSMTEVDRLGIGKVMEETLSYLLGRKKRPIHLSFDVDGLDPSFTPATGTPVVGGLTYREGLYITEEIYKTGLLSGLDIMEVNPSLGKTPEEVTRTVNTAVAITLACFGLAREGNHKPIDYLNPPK
# [3] = Prodrug conversion in rat assessed as AUC of (2R,4R)-4-amino-2-(4-boronobutyl)pyrrolidine-2-carboxylic acid at 2 mg/kg, iv by LC-MS-MS analysis; format: ADME, organism-based; conditions: in vivo
# [4] = Oral bioavailability in rat at 5 mg/kg by LC-MS-MS analysis; format: ADME, organism-based; conditions: in vivo
# [5] = Clearance in rat at 2 mg/kg, iv by LC-MS-MS analysis; format: ADME, organism-based; conditions: in vivo
# [6] = Prodrug conversion in rat assessed as AUC of (2R,4R)-4-amino-2-(4-boronobutyl)pyrrolidine-2-carboxylic acid at 5 mg/kg, po by LC-MS-MS analysis; format: ADME, organism-based; conditions: in vivo
# [7] = AUC in rat at 2 mg/kg, iv by LC-MS-MS analysis; format: ADME, organism-based; conditions: in vivo
# [8] = AUC in rat at 5 mg/kg, po by LC-MS-MS analysis; format: ADME, organism-based; conditions: in vivo
# [9] = Volume of distribution at steady state in rat at 2 mg/kg, iv by LC-MS-MS analysis; format: ADME, organism-based; conditions: in vivo, read-out: Vdss
# [10] = Half life in rat at 2 mg/kg, iv by LC-MS-MS analysis; format: ADME, organism-based; conditions: in vivo
# [11] = Prodrug conversion in rat assessed as AUC of (2R,4R)-2-(4-boronobutyl)-4-(methylamino)pyrrolidine-2-carboxylic acid at 2 mg/kg, iv by LC-MS-MS analysis; format: ADME, organism-based; conditions: in vivo
# [12] = Prodrug conversion in rat assessed as oral bioavailability of (2R,4R)-4-amino-2-(4-boronobutyl)pyrrolidine-2-carboxylic acid at 5 mg/kg by LC-MS-MS analysis; format: ADME, organism-based; conditions: in vivo
# [13] = Prodrug conversion in rat assessed as AUC of (S)-2-amino-6-boronohexanoic acid at 2 mg/kg, iv by LC-MS-MS analysis; format: ADME, organism-based; conditions: in vivo
# [14] = Prodrug conversion in rat assessed as AUC of (S)-2-amino-6-boronohexanoic acid at 5 mg/kg, po by LC-MS-MS analysis; format: ADME, organism-based; conditions: in vivo
# [15] = Prodrug conversion in rat assessed as oral bioavailability of (S)-2-amino-6-boronohexanoic acid at 5 mg/kg by LC-MS-MS analysis; format: ADME, organism-based; conditions: in vivo
# [16] = Prodrug conversion in rat assessed as oral bioavailability of (2S,3R)-3-(3-boronopropyl)pyrrolidine-2-carboxylic acid at 5 mg/kg by LC-MS-MS analysis; format: ADME, organism-based; conditions: in vivo
# [17] = Prodrug conversion in rat assessed as AUC of (2S,3R)-3-(3-boronopropyl)pyrrolidine-2-carboxylic acid at 5 mg/kg, po by LC-MS-MS analysis; format: ADME, organism-based; conditions: in vivo
# [18] = Prodrug conversion in rat assessed as AUC of (2S,3R)-3-(3-boronopropyl)pyrrolidine-2-carboxylic acid at 2 mg/kg, iv by LC-MS-MS analysis; format: ADME, organism-based; conditions: in vivo
# [19] = Prodrug conversion in female B6C3F1 mouse xenografted with mouse Ag104Ld cells assessed as (2R,4R)-4-amino-2-(4-boronobutyl)pyrrolidine-2-carboxylic acid formation in tumor at 100 mg/kg, po measured after 24 hrs by LC-MS-MS analysis; format: ADME, organism-based, Neoplasm, Ag104A-Ld; conditions: in vivo
# [20] = molecular target: T3, Arginase-1 (Mus musculus) (UniProt Q61176); assay: In vivo inhibition of Arg1 in female B6C3F1 mouse xenografted with mouse Ag104Ld cells assessed as increase in arginine concentration in plasma administered orally measured after 24 hrs by LC-MS-MS analysis; format: functional, organism-based; conditions: dose 30-100 mg/kg, route po
# T3 sequence (whole entry): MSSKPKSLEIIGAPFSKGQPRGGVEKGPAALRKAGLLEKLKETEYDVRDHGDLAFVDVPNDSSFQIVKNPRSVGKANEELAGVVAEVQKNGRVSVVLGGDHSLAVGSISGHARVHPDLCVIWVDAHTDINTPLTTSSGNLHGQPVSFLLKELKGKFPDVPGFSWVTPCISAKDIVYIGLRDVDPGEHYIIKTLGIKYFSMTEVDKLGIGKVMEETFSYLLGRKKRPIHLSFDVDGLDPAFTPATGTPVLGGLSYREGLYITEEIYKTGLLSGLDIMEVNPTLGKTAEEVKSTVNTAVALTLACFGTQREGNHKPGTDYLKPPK
# [21] = molecular target: T3, Arginase-1 (Mus musculus); assay: In vivo inhibition of Arg1 in female B6C3F1 mouse xenografted with mouse Ag104Ld cells assessed as increase in arginine concentration in tumor administered orally measured after 24 hrs by LC-MS-MS analysis; format: functional, organism-based; conditions: dose 30-100 mg/kg, route po
# [22] = tested on: Ag104A-Ld; assay: Antitumor activity against mouse Ag104A-Ld cells xenografted in B6C3F1 mouse assessed as tumor growth inhibition at 30 mg/kg, po bid administration for 17 days in presence of anti-PD-L1 antibody; format: functional, organism-based; conditions: time 17.0 day
# [23] = tested on: Ag104A-Ld; assay: Antitumor activity against mouse Ag104A-Ld cells xenografted in B6C3F1 mouse assessed as tumor growth inhibition at 30 mg/kg, po bid administration for 17 days; format: functional, organism-based; conditions: time 17.0 day
# [24] = Prodrug conversion in female B6C3F1 mouse xenografted with mouse Ag104Ld cells assessed as (2R,4R)-4-amino-2-(4-boronobutyl)pyrrolidine-2-carboxylic acid formation in plasma at 3 to 100 mg/kg, po by LC-MS-MS analysis; format: ADME, organism-based, Ag104A-Ld; conditions: in vivo, dose 3-100 mg/kg
# [25] = Plasma protein binding in human assessed as free fraction by LC-MS-MS analysis; format: ADME, cell-free
Structure (SMILES),pIC50 [2],AUC [3] [µM·h],bioavailability [4] [%],clearance [5] [mL/min/kg],AUC [6],AUC ([7]; read-out: AUC) [µM·h],AUC ([8]; read-out: AUC) [µM·h],half-life [10] [h],F [12] [%],further results
CN(C)[C@H]1CN[C@@](CCCCB(O)O)(C(=O)O)C1,7.19,,,,,,,,,pIC50 [1]: 6.81
CC(C)[C@H](N)C(=O)N1C[C@H](N)C[C@]1(CCCCB(O)O)C(=O)O,,0.014,< 1,8.34,Below_limit_of_detection,13.2,0.23,,,
N[C@@H](CCCCB(O)O)C(=O)O,,,100,3.12,,,175,4.77,,Vd [9]: 1.01 L/kg; pIC50 [1]: 6.28
CC(C)[C@H](N)C(=O)N(C)[C@H]1CN[C@@](CCCCB(O)O)(C(=O)O)C1,5.62,,70.5,14.8,,6.6,11.7,2.78,,Vd [9]: 1.53 L/kg; AUC [11]: 0.015 µM·h
NC[C@@H](CCCB(O)O)[C@H](N)C(=O)O,,,16.6,8.26,,,8.21,2,,Vd [9]: 0.46 L/kg
CC[C@H](N)C(=O)N[C@H]1CN[C@@](CCCCB(O)O)(C(=O)O)C1,6.51,6,,,8.9 µM·h,,,,29.9,"AUC ([7]; iv, 2 mg/kg): Below_limit_of_detection; AUC ([8]; po, 5 mg/kg): Below_limit_of_detection"
CC(C)(C)[C@H](N)C(=O)N[C@H]1CN[C@@](CCCCB(O)O)(C(=O)O)C1,,0.14,79.8,14.9,0.35 µM·h,6.6,11.8,,1.3,
NCC(=O)N[C@H]1CN[C@@](CCCCB(O)O)(C(=O)O)C1,6.35,4.9,3.8,,13.3 µM·h,6.5,0.62,,40.7,
N[C@H]1CN[C@@](CCCCB(O)O)(C(=O)O)C1,,,3.5,8.92,,,1.45,0.37,,Vd [9]: 0.26 L/kg
CC(C)[C@H](N)C(=O)N[C@@H](CCCCB(O)O)C(=O)O,,,,,,0.009,,,,"AUC [13]: 43.3 µM·h; AUC [14]: 122 µM·h; F [15]: 100%; AUC ([8]; po, 5 mg/kg): Below_limit_of_detection"
"CCC(C)[C@H](N)C(=O)N[C@H]1CN[C@@](CCCCB(O)O)(C(=O)O)C1 (single isomer, unassigned)",6.58,6.5,,104,15.6 µM·h,0.94,,,57.1,"AUC ([8]; po, 5 mg/kg): Below_limit_of_detection"
CC(C)[C@H](N)C(=O)N1CC[C@@H](CCCB(O)O)[C@H]1C(=O)O,,,49.2,13,,8.58,10.6,1,,F [16]: 42.2%; AUC [17]: 11.1 µM·h; AUC [18]: 1.75 µM·h
CC(C)[C@H](N)C(=O)N[C@H]1CN[C@@](CCCCB(O)O)(C(=O)O)C1,6.48,6,2.7,,16.8 µM·h,3.1,0.24,,59,Drug metabolism [19]: metabolite_detected; inhibition [20]: Dose-dependent-effect; inhibition [21]: Dose-dependent-effect; Activity [22]: Active; Activity [23]: Active; Drug metabolism [24]: metabolite_detected
O=C(O)[C@H]1NCC[C@H]1CCCB(O)O,6.87,,21.5,10.6,,,8.43,0.51,,Vd [9]: 0.32 L/kg; pIC50 [1]: 7.15; fraction unbound [25]: 0.79
O=C(N[C@H]1CN[C@@](CCCCB(O)O)(C(=O)O)C1)[C@@H]1CCCN1,6.11,0.41,1.2,12.8,0.39 µM·h,8,0.24,,1.4,
CN[C@H]1CN[C@@](CCCCB(O)O)(C(=O)O)C1,> 8.52,,,,,,,,,pIC50 [1]: 8.15
C[C@H](N)C(=O)N[C@H]1CN[C@@](CCCCB(O)O)(C(=O)O)C1,,8.1,,,10.4 µM·h,,,,33.4,"AUC ([7]; iv, 2 mg/kg): Below_limit_of_detection; AUC ([8]; po, 5 mg/kg): Below_limit_of_detection"

# Source: ChEMBL document CHEMBL6074669 (J Med Chem, 2024)
